Results reported in patent US20020137929A1, “1 - (3-heterocyclylphenyl) isothiourea, -isourea, -guanidine and -amidine herbicidal agents” (Intellectual Property Department, BASF Aktiengesellschaft, priority 1998, published 2002).

What was measured:
GALAP (Galium) = test: Postemergence herbicidal evaluation; type: in vivo, Galium aparine; details: postemergence
How it was run: (§1)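 First, seedlings were raised for around two weeks. Next, test material in 50/50 acetone/water containing 0.5% TWEEN 20 was sprayed through a nozzle at 40 psi, equivalent to about 0.0156–0.500 kg/ha. Finally, after 4–5 weeks in the greenhouse, plants were rated 0–9.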

[1] = tested on: IPOHE (Morningglory, Ivyleaf); test: Postemergence herbicidal evaluation; type: in vivo, Ipomoea hederacea; details: postemergence
How it was run: as §1

SETVI (Foxtail, Green) [2] = test: Postemergence herbicidal evaluation; type: in vivo, Setaria viridis; details: postemergence
How it was run: as §1

[3] = tested on: TRZAWR (Wheat, Winter, cv Riband); test: Postemergence herbicidal evaluation; type: in vivo, Triticum aestivum; details: postemergence
How it was run: as §1

ABUTH (Velvetleaf) = test: Preemergence herbicidal evaluation; type: in vivo, Abutilon theophrasti; details: rated 4-5 weeks after treatment
How it was run: (§2)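 Sown cups got a single aqueous acetone spray of test compound (roughly 0.0156–0.500 kg/ha) before seedlings emerged. Evaluation, 4–5 weeks on, used a 0–9 visual scale covering plant stand, vigor, size, malformation, chlorosis and general appearance compared with controls.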

[4] = tested on: IPOHE (Morningglory, Ivyleaf); test: Preemergence herbicidal evaluation; type: in vivo, Ipomoea hederacea; details: rated 4-5 weeks after treatment
How it was run: as §2

ECHCG (Barnyardgrass) = test: Preemergence herbicidal evaluation; type: in vivo, Echinochloa crus-galli; details: rated 4-5 weeks after treatment
How it was run: as §2

SETVI (Foxtail, Green) [5] = test: Preemergence herbicidal evaluation; type: in vivo, Setaria viridis; details: rated 4-5 weeks after treatment
How it was run: as §2

ZEAMX (Corn, Field) = test: Preemergence herbicidal evaluation; type: in vivo, Zea mays; details: rated 4-5 weeks after treatment
How it was run: as §2

[6] = tested on: ECHORC (Watergrass (Calif.)); test: Preemergence weed control under flooded paddy conditions; type: in vivo, Echinochloa oryzoides; details: rated 3-4 weeks after treatment
How it was run: (§3)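 First, seeds or propagules go into the top 0.5 cm of silt loam; next, water is held 1.5 to 3 cm over the soil; then compound (50/50 acetone/water) is pipetted into it at about 0.0313 to 0.500 kg/ha; finally plants are rated visually 0-9 after three to four weeks.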

CYPIR (Rice Flatsedge) = test: as above; type: in vivo, Cyperus iria; details: rated 3-4 weeks after treatment
How it was run: as §3

[7] = tested on: ECHORC (Watergrass (Calif.)); test: Postemergence weed control under flooded paddy conditions; type: in vivo, Echinochloa oryzoides; details: postemergence weeds, rated 3 to 4 weeks after treatment
How it was run: (§4)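 Herbicidal effect is judged by eye on a 0–9 scale versus control, 3–4 weeks after dosing. Dosing is into flood water kept 1.5–3 cm over the soil, at about 0.0313–0.500 kg/ha in aqueous/acetone 50/50 v/v, on 3–5 cm weeds and 1.5–2.5-leaf rice seedlings.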

[8] = tested on: SAGPY (Arrowhead (Pygmaea)); test: as above; type: in vivo, Sagittaria pygmaea; details: postemergence weeds, rated 3 to 4 weeks after treatment
How it was run: as §4

COC(=O)C(Cc1ccc(Cl)cc1)N1C(=O)CSC1=Nc1cc(-n2c(=O)cc(C(F)(F)F)n(C)c2=O)c(F)cc1Cl (racemic) [Compound 77, Methyl α-(p-chlorobenzyl)-2-{{2-chloro-5-[3,6-dihydro-3-methyl-2,6-dioxo-4-(trifluoromethyl)-1(2H)-pyrimidinyl]-4-fluorophenyl}imino}-4-oxo-3-thiazolidineacetate, DL-]
1.0: GALAP herbicidal rating (GALAP (Galium); rate 0.0158 kg/ha) | GALAP herbicidal rating (GALAP (Galium); rate 0.0315 kg/ha) | SETVI herbicidal rating (SETVI (Foxtail, Green) [2]; rate 0.0158 kg/ha) | Preemergence herbicidal rating ABUTH (ABUTH (Velvetleaf); rate 0.0156 kg/ha) | Preemergence herbicidal rating IPOHE ([4]; rate 0.0156 kg/ha) | Preemergence herbicidal rating ZEAMX (ZEAMX (Corn, Field); rate 0.2500 kg/ha)
9.0: IPOHE herbicidal rating ([1]; rate 0.0158 kg/ha) | IPOHE herbicidal rating ([1]; rate 0.0315 kg/ha) | IPOHE herbicidal rating ([1]; rate 0.0630 kg/ha) | Preemergence herbicidal rating ABUTH (ABUTH (Velvetleaf); rate 0.0625 kg/ha) | Preemergence herbicidal rating ABUTH (ABUTH (Velvetleaf); rate 0.1250 kg/ha) | Preemergence herbicidal rating ABUTH (ABUTH (Velvetleaf); rate 0.2500 kg/ha) | Preemergence herbicidal rating SETVI (SETVI (Foxtail, Green) [5]; rate 0.2500 kg/ha) | ECHORC herbicidal effect rating ([6]; 0.0313 kg/ha) | ECHORC herbicidal effect rating ([6]; 0.0625 kg/ha) | ECHORC herbicidal effect rating ([6]; 0.1250 kg/ha) | ECHORC herbicidal effect rating ([6]; 0.2500 kg/ha) | Herbicidal rating ECHORC ([7]; Rate 0.0313 kg/ha) | Herbicidal rating ECHORC ([7]; Rate 0.0625 kg/ha) | Herbicidal rating ECHORC ([7]; Rate 0.1250 kg/ha) | Herbicidal rating ECHORC ([7]; Rate 0.2500 kg/ha)
6.0: SETVI herbicidal rating (SETVI (Foxtail, Green) [2]; rate 0.0315 kg/ha)
3.0: TRZAWR herbicidal rating ([3]; rate 0.0158 kg/ha) | TRZAWR herbicidal rating ([3]; rate 0.0630 kg/ha)
0.0: Preemergence herbicidal rating ABUTH (ABUTH (Velvetleaf); rate 0.0313 kg/ha) | Preemergence herbicidal rating IPOHE ([4]; rate 0.0313 kg/ha) | Preemergence herbicidal rating IPOHE ([4]; rate 0.0625 kg/ha) | Preemergence herbicidal rating IPOHE ([4]; rate 0.1250 kg/ha) | Preemergence herbicidal rating ECHCG (ECHCG (Barnyardgrass); rate 0.0156 kg/ha) | Preemergence herbicidal rating ECHCG (ECHCG (Barnyardgrass); rate 0.0313 kg/ha) | Preemergence herbicidal rating ECHCG (ECHCG (Barnyardgrass); rate 0.0625 kg/ha) | Preemergence herbicidal rating ECHCG (ECHCG (Barnyardgrass); rate 0.1250 kg/ha) | Preemergence herbicidal rating ECHCG (ECHCG (Barnyardgrass); rate 0.2500 kg/ha) | Preemergence herbicidal rating SETVI (SETVI (Foxtail, Green) [5]; rate 0.0156 kg/ha) | Preemergence herbicidal rating SETVI (SETVI (Foxtail, Green) [5]; rate 0.0313 kg/ha) | Preemergence herbicidal rating SETVI (SETVI (Foxtail, Green) [5]; rate 0.0625 kg/ha) | Preemergence herbicidal rating SETVI (SETVI (Foxtail, Green) [5]; rate 0.1250 kg/ha) | Preemergence herbicidal rating ZEAMX (ZEAMX (Corn, Field); rate 0.0313 kg/ha) | Preemergence herbicidal rating ZEAMX (ZEAMX (Corn, Field); rate 0.0625 kg/ha) | Preemergence herbicidal rating ZEAMX (ZEAMX (Corn, Field); rate 0.1250 kg/ha) | CYPIR herbicidal effect rating (CYPIR (Rice Flatsedge); 0.0313 kg/ha) | CYPIR herbicidal effect rating (CYPIR (Rice Flatsedge); 0.0625 kg/ha) | CYPIR herbicidal effect rating (CYPIR (Rice Flatsedge); 0.1250 kg/ha) | CYPIR herbicidal effect rating (CYPIR (Rice Flatsedge); 0.2500 kg/ha) | Herbicidal rating SAGPY ([8]; Rate 0.0313 kg/ha) | Herbicidal rating SAGPY ([8]; Rate 0.0625 kg/ha) | Herbicidal rating SAGPY ([8]; Rate 0.1250 kg/ha) | Herbicidal rating SAGPY ([8]; Rate 0.2500 kg/ha)
2.5: TRZAWR herbicidal rating ([3]; rate 0.0315 kg/ha)
2.0: Preemergence herbicidal rating IPOHE ([4]; rate 0.2500 kg/ha) | Preemergence herbicidal rating ZEAMX (ZEAMX (Corn, Field); rate 0.0156 kg/ha)
7.0: GALAP herbicidal rating (GALAP (Galium); rate 0.0630 kg/ha) | SETVI herbicidal rating (SETVI (Foxtail, Green) [2]; rate 0.0630 kg/ha)
